Assays:
Assay type in all cases: in vivo, rat
diabetic rats [1] = assay: Motor nerve conduction velocity (NCV) in sciatic nerve of streptozotocin-diabetic rats; conditions: for motor NCV: 2-week daily oral treatment after 6 weeks untreated diabetes, diabetic around 50 m/s, non-diabetic around 60 m/s; for ED50: Rattus norvegicus, calculated from dose response curves of FIG. 13; for times more potent than GLA in restoring motor nerve conduction velocity: from ED50 values
Experimental: (§1) Male Sprague-Dawley rats (Aberdeen University colony) were used, which were 19 weeks old at the start of the study. Diabetes was induced by intraperitoneal streptozotocin injection at 40-45 mg kg^−1 freshly dissolved in sterile 0.9% saline solution. This was verified 24 hours later by estimating hyperglycaemia (blood glucose>19.9 mM) and glycosuria, and diabetic state was monitored weekly using test strips for blood (tail vein) and urine glucose levels. Body weight was also monitored daily to check against body weight gain (which would indicate partial recovery of beta cell function and exclude diabetic status).
(§2) After 6 weeks of untreated diabetes, four experimental groups (n=6 per group) were treated for a 2-week period, with a daily oral administration of 13-HODE at a range of dosages (13-Hydoxydienoic acid, Equateq, Isle of Lewis, UK), added to the food and dispersed in a sunflower oil vehicle. Experimental groups were treated with doses of a representative compound of the invention,13-HODE, ranging from 0.01 mg/kg/day to 100 mg/kg/day.
Rats were anaesthetized with thiobutabarbital sodium (50-100 mg kg^−1 i.p.). The trachea was cannulated for artificial respiration.
The sciatic nerve was exposed between the sciatic notch and knee, and Motor nerve conduction velocity (NCV) was measured using concentric bipolar electrodes, as described in Cameron N E, et al (1989) Q J Exp Physiol 74:917-926 and Cameron N E, et al (1991) Diabetes 40:532-539, in the nerve branch to tibialis anterior muscle, which is representative of the whole sciatic nerve in terms of susceptibility to diabetes and treatment effects. Evoked electromyographic (EMG) potentials from each stimulating site were averaged 8 times, and Motor NCV was calculated by dividing the distance between stimulating electrodes by the average latency difference between the onset of EMG potentials evoked from the 2 sites. Nerve temperatures were monitored by thermocouple probes, and maintained in the range 36-38° C. by radiant heat. Body temperature was also maintained around 37° C. using a heated blanket.
Experiments were carried out in similar fashions to Examples 1 and 2 except that 15-HETrE was used instead of 13-HODE.
An experiment was carried out in accordance with the method of Example 1 to determine the effect of GLA, 13-HODE and 15-HETrE on Motor NCV in diabetic rats.

diabetic rats [2] = assay: Sensory nerve conduction velocity (NCV) in saphenous nerve of streptozotocin-diabetic rats; conditions: 2-week daily oral treatment after 6 weeks untreated diabetes, diabetic around 50 m/s, non-diabetic around 60 m/s
Experimental: as §1, §2
Rats were anaesthetized with thiobutabarbital sodium (50-100 mg kg^−1 i.p.). […]
An experiment was carried out in a similar fashion to Example 1 except that Sensory NCV was measured in the saphenous nerve between groin and mid calf. Direct nerve evoked potentials were recorded at the ankle using a unipolar platinum hook electrode. […]

diabetic rats [3] = assay: Sciatic nerve endoneurial blood flow by microelectrode polarography and hydrogen clearance; conditions: 1 mg/kg/day in food for 2 weeks, flow halved in diabetic rats
Experimental: Diabetes was induced in mature (19 week old) male Sprague-Dawley by streptozotocin injection (40-45 mg/kg i.p.). The diabetic state was monitored weekly using commercially available test strips for blood (tail vein) and urine glucose levels. Body weight would also be monitored daily. The criteria for the diabetic state are; blood glucose>19.9 mM, glycosuria, and no evidence of body weight gain (which would indicate partial recovery of beta cell function). At the end of the experiments, blood samples would be taken for the determination of plasma glucose. […]
Sciatic nerve endoneurial blood flows in non-diabetic control rats, diabetic rats treated with vehicle alone and diabetic rats treated with 13-HODE were estimated by microelectrode polarography and hydrogen clearance, using the methods described in Day T J, Lagerlund T D, Low P A (1989) Analysis of H2 clearance curves used to measure blood flow in rat sciatic nerve, J Physiol 414:35-54, and Cameron N E, Cotter M A, Low P A (1991) Nerve blood flow in early experimental diabetes in rats: relation to conduction deficits, Am J Physiol 261:E1-E8. […] The level of anaesthesia was monitored by observing any reaction of blood pressure to manipulation, and supplementary thiobutabarbital anaesthetic given as necessary. […]

diabetic rats [4] = assay: Hargreaves plantar test, withdrawal latency to noxious thermal stimulation of the foot; conditions: 1 mg/kg/day in food for 2 weeks
Experimental: (§3) Diabetes was induced in mature (19 week old) male Sprague-Dawley by streptozotocin injection (40-45 mg/kg i.p.). The diabetic state was monitored weekly using commercially available test strips for blood (tail vein) and urine glucose levels. Body weight would also be monitored daily. The criteria for the diabetic state are; blood glucose>19.9 mM, glycosuria, and no evidence of body weight gain (which would indicate partial recovery of beta cell function). At the end of the experiments, blood samples would be taken for the determination of plasma glucose.
(§4) Experiments were designed with a reversal (intervention) paradigm: diabetic rats were untreated for 6 weeks to allow the development of neurovascular dysfunction. They were then treated over the next 2 weeks with a dose of 1 mg/kg/day of a representative compound of the invention, 13-HODE, given as a dietary supplement dispersed in the food with a sunflower oil vehicle (50 ml/2.5 kg food). […]
Before final experiments, nociceptive latencies for withdrawal reflexes to noxious thermal stimulation of the foot were estimated by the Hargreaves plantar test using commercially available equipment (Ugo-Basile, Comerio, Italy). […] After 30 min acclimatization, a constant power infrared stimulus was focused through the glass base onto the sole of the foot and the latency for reflex foot withdrawal automatically recorded via a photoelectric monitor. […]

diabetic rats [5] = assay: Tactile allodynia, electronic von Freys hair apparatus; conditions: 1 mg/kg/day in food for 2 weeks
Experimental: as §3
as §4, with “food). Groups of nondiabetic control rats and diabetic rats treated with vehicle alone were also studied.” for “food).”
Tactile allodynia in non-diabetic control rats, diabetic rats treated with vehicle alone and diabetic rats treated with 13-HODE was monitored using an electronic von Freys hair apparatus. […] Allodynia was measured for each foot on one day.

diabetic rats [6] = assay: Randall-Sellito test, mechanical pressure thresholds; conditions: 1 mg/kg/day in food for 2 weeks
Experimental: as §3
(§5) Experiments were designed with a reversal (intervention) paradigm: diabetic rats were untreated for 6 weeks to allow the development of neurovascular dysfunction. They were then treated over the next 2 weeks with a dose of 1 mg/kg/day of a representative compound of the invention, 13-HODE, given as a dietary supplement dispersed in the food with a sunflower oil vehicle (50 ml/2.5 kg food). Groups of nondiabetic control rats and diabetic rats treated with vehicle alone were also studied.
Groups of non-diabetic control rats, diabetic rats treated with vehicle alone and diabetic rats treated with 13-HODE were obtained as in Example 4.
Before final experiments, nociceptive thresholds for mechanical stimulation were measured by the Randall-Sellito test . […]

diabetic rats [7] = assay: Corpus cavernosum pressure responses to cavernous nerve stimulation
Experimental: as §3
as §5, with “studied. […]” for “studied.”
Non-diabetic control rats, diabetic rats treated with vehicle alone and diabetic rats treated with 13-HODE were anaesthetized with thiobutabarbital (50-100 mg kg^−1 i.p.). […] Cavernosal pressure responses were recorded in response to 60 s periods of suprathreshold (3-5 mA) nerve stimulation at frequencies in the range 1-32 Hz (stimulus duration 1.5-2 ms). […]

diabetic rats [8] = assay: Major pelvic ganglion blood flow by hydrogen clearance; conditions: 1 mg/kg/day in food for 2 weeks

Row | SMILES | motor NCV (diabetic rats [1]) | ED50 (diabetic rats [1]) [mg/kg] | times more potent than GLA in restoring motor nerve conduction velocity (diabetic rats [1]) | sensory NCV (diabetic rats [2]) | sciatic nerve endoneurial blood flow (diabetic rats [3]) | latency of response to thermal stimuli (increased sensitivity to noxious heat) (diabetic rats [4]) | tactile allodynia (threshold for foot withdrawal to tactile stimulation) (diabetic rats [5]) | sensitivity to mechanical deep pressure (foot withdrawal) (diabetic rats [6]) | whole-frequency response curve versus nondiabetic controls (diabetic rats [7]; 1 mg/kg/day for 2 weeks, 2-way ANOVA p<0.01) | cavernosal pressure responses to nerve stimulation: diabetic deficit (diabetic rats [7]; 1 mg/kg/day in food for 2 weeks, stimulation 1-32 Hz) | major pelvic ganglion blood flow (diabetic rats [8])
1 | CCCCCC(O)/C=C/C=C\CCCCCCCC(=O)O (stereo not shown) [13-HODE, 13-Hydroxyoctadeca-9Z,11E-dienoic acid] | around 60 m/s | 0.057 | approximately 3000 times | around 60 m/s | completely restored | completely corrected | almost completely reversed | small but statistically significant improvement | significantly greater pressure response | completely corrected | restored to within the nondiabetic range
2 | CCCCCC(O)/C=C/C=C\C/C=C\CCCCCCC(=O)O (stereo not shown) [15-HETrE, 15-Hydroxy-eicosa-8Z,11Z,13E-trienoic acid] | around 60 m/s | 0.252 | approximately 500 times | around 60 m/s |  |  |  |  |  |  | 
3 | CCCCC/C=C\C/C=C\C/C=C\CCCCC(=O)O [GLA, gamma-linolenic acid, reference compound] |  | 165 |  |  |  |  |  |  |  |  | 
